Source: BindingDB's records for patent US20240124427 (Idorsia Pharmaceuticals, 2024)

Molecular target: Galectin-3 (Homo sapiens, UniProt P17931)
Test: Spectrophotometric Assay
Protocol: The inhibitory activity of compounds is determined in competitive binding assays. […] Finally, 25 μL/well of ABTS substrate is added.

Galectin-3, sequence (P17931 whole entry): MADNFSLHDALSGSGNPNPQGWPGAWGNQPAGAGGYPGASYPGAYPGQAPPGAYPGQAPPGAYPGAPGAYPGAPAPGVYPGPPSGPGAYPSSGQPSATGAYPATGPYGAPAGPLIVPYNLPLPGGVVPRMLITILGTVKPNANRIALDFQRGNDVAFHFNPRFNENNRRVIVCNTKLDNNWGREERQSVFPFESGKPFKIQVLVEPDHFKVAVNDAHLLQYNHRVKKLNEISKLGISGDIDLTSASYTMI

| SMILES | IC50 [nM] |
| --- | --- |
| CO[C@@H]1[C@@H](n2cc(-c3cc(F)c(F)c(F)c3)nn2)[C@@H](O)[C@@H](CO)O[C@H]1C(=O)N(c1cc(Cl)cc(Cl)c1)[C@H]1COC[C@@H]1O [US20240124427, Example 4] | 72 |
| CO[C@@H]1[C@@H](n2cc(-c3cc(F)c(F)c(F)c3)nn2)[C@@H](O)[C@@H](CO)O[C@H]1C(=O)N(c1cc(Br)cc(C#N)c1)[C@H]1COC[C@@H]1O [US20240124427, Example 7] | 83 |
| CO[C@@H]1[C@@H](n2cc(-c3cc(F)c(Cl)c(F)c3)nn2)[C@@H](O)[C@@H](CO)O[C@H]1C(=O)N(c1cc(Br)cc(C#N)c1)[C@H]1COC[C@@H]1O [US20240124427, Example 24] | 73 |
| CO[C@@H]1[C@@H](n2cc(-c3cc(F)c(F)c(F)c3)nn2)[C@@H](O)[C@@H](CO)O[C@H]1C(=O)N(c1cc(Br)cc(C#N)c1)[C@@H]1COC[C@H]1O [US20240124427, Example 36] | 67 |
| CO[C@@H]1[C@@H](n2cc(-c3cc(F)c(Cl)c(F)c3)nn2)[C@@H](O)[C@@H](CO)O[C@H]1C(=O)N(c1cc(Br)cc(C#N)c1)[C@@H]1COC[C@H]1O [US20240124427, Example 53] | 46 |
| CO[C@@H]1[C@@H](n2cc(-c3ccc(Br)c(F)c3F)nn2)[C@@H](O)[C@@H](CO)O[C@H]1C(=O)N(c1cc(Cl)cc(Cl)c1)[C@H]1CNC[C@@H]1O [US20240124427, Example 62] | 12 |
